The record followed here is the supplement of paper PMC11208160.
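Note: IS621 recombinase and bridge RNA in Escherichia coli cells.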

This data set can be described thus: recombinant barcode read abundance after kanamycin selection (control-corrected) (log10(CPM+1)); higher = more efficient recombination; sequences stand for … in AGTGCAGAGAAAATCGGCCAGTTTTCTCTGCCTGCAGTCCGCATGCCGT…AGATTTATGCAGCGGACTGCCTTTCTCCCAAAGTGATAAACCGGACAGTATCATGGACCGGTTTTCCCGGTAATCCGTATTTGCAAGGTTGGTTTCACT; site = the 11-nt target. A digest of the protocol:
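Targets were screened in pooled form in E. coli against IS621 bridge RNA target-binding loops. Recombination efficiency is based on barcode counts at recombinant junctions in counts per million, averaged and corrected for the control. Numbers are shown as log10(CPM+1), with duplicate plates on chloramphenicol/ampicillin LB agar (control) or chloramphenicol/ampicillin/kanamycin with 0.1 mM IPTG.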
“CGTCTGCCTTGGGTTCTAACCTGTTGCCT (site TGTCTGCCTAG)”: the “recombinant barcode read abundance (log10)” value was 0.193.

Regarding “CGTGACCCTTGGGTTCTAACCTGTTGCGG (site CGTGACCCTCC)”, the “recombinant barcode read abundance (log10)” value is 2.34.

Take “CGTGACCCTTGGGTTCTAACCTGTTGCGG (site GTGAGAACTTG)”: the “recombinant barcode read abundance (log10)” value came out at 0.072.

Turning to “CGTGCAGCTTGGGTTCTAACCTGTTGCCT (site CGAGCAGCTAG)”, the “recombinant barcode read abundance (log10)” value came out at 0.508.

“CGTGCAGCTTGGGTTCTAACCTGTTGCCT (site CGCGCAGCTAG)”: the “recombinant barcode read abundance (log10)” value was 0.137.

On to “CGTGCAGCTTGGGTTCTAACCTGTTGCCT (site CGGGCAGCTAG)”, for which the “recombinant barcode read abundance (log10)” value was 0.0626.

With “CGTGCAGCTTGGGTTCTAACCTGTTGCCT (site CGTGCAGCTAG)”, the “recombinant barcode read abundance (log10)” value came out at 0.323.

Turning to “CGTGCGCCTTGGGTTCTAACCTGTTGCCT (site AAACTAGCTCC)”, the “recombinant barcode read abundance (log10)” value is 0.0967.

Consider “CGTGCGCCTTGGGTTCTAACCTGTTGCCT (site CGTGCGCCTAG)”, for which the “recombinant barcode read abundance (log10)” value stood at 0.174.

As to “CGTGGTCCTTGGGTTCTAACCTGTTGCGT (site CGTGGTCCTAA)”, the “recombinant barcode read abundance (log10)” value is 0.615.

For “CGTGGTCCTTGGGTTCTAACCTGTTGCGT (site CGTGGTCCTAC)”, the “recombinant barcode read abundance (log10)” value came to 2.26.

In the case of “CGTGGTCCTTGGGTTCTAACCTGTTGCGT (site CGTGGTCCTAG)”, the “recombinant barcode read abundance (log10)” value turned out to be 0.224.

For the sequence “CGTGGTCCTTGGGTTCTAACCTGTTGCGT (site CGTGGTCCTAT)”, the “recombinant barcode read abundance (log10)” value came out at 1.25.

Take “CGTGGTCCTTGGGTTCTAACCTGTTGCTT (site CGTGGTCCTAA)”: the “recombinant barcode read abundance (log10)” value was determined as 0.919.

“CGTGGTCCTTGGGTTCTAACCTGTTGCTT (site CGTGGTCCTAC)”: the “recombinant barcode read abundance (log10)” value was 0.409.

In the case of “CGTGGTCCTTGGGTTCTAACCTGTTGCTT (site CGTGGTCCTAG)”, the “recombinant barcode read abundance (log10)” value worked out at 0.342.

In the case of “CGTGGTCCTTGGGTTCTAACCTGTTGCTT (site CGTGGTCCTAT)”, the “recombinant barcode read abundance (log10)” value is 0.426.

As to “CGTTCCACTTGGGTTCTAACCTGTTGCCT (site CGTTCAACTAG)”, the “recombinant barcode read abundance (log10)” value worked out at 0.0139.

For “CGTTCCACTTGGGTTCTAACCTGTTGCCT (site CGTTCCACTAG)”, the “recombinant barcode read abundance (log10)” value was 0.0687.

On to “CGTTCCACTTGGGTTCTAACCTGTTGCCT (site CGTTCGACTAG)”, for which the “recombinant barcode read abundance (log10)” value was found to be 0.279.

In the case of “CGTTCCACTTGGGTTCTAACCTGTTGCCT (site CGTTCTACTAG)”, the “recombinant barcode read abundance (log10)” value was 0.

“CTAAACCCTTGGGTTCTAACCTGTTGCGT (site CTAAACCCTAC)”: the “recombinant barcode read abundance (log10)” value was found to be 2.85.

“CTAAACCCTTGGGTTCTAACCTGTTGCGT (site CTACACCCTTC)”: the “recombinant barcode read abundance (log10)” value turned out to be 0.0729.

As for “CTAAATCCTTGGGTTCTAACCTGTTGCCT (site ATAAATCCTAG)”, the “recombinant barcode read abundance (log10)” value worked out at 0.111.

As to “CTAAATCCTTGGGTTCTAACCTGTTGCCT (site CTAAATCCTAG)”, the “recombinant barcode read abundance (log10)” value was 0.303.

“CTAAATCCTTGGGTTCTAACCTGTTGCCT (site GTAAATCCTAG)”: the “recombinant barcode read abundance (log10)” value is 0.0932.

For the sequence “CTAAATCCTTGGGTTCTAACCTGTTGCCT (site TTAAATCCTAG)”, the “recombinant barcode read abundance (log10)” value was 0.0182.

Turning to “CTAACCGCTTGGGTTCTAACCTGTTGCCT (site CAAACCGCTAG)”, the “recombinant barcode read abundance (log10)” value turned out to be 0.471.

With “CTAACCGCTTGGGTTCTAACCTGTTGCCT (site CCAACCGCTAG)”, the “recombinant barcode read abundance (log10)” value amounted to 0.266.

For “CTAACCGCTTGGGTTCTAACCTGTTGCCT (site CGAACCGCTAG)”, the “recombinant barcode read abundance (log10)” value came to 0.0568.

Turning to “CTAACCGCTTGGGTTCTAACCTGTTGCCT (site CTAACCGCTAG)”, the “recombinant barcode read abundance (log10)” value is 1.67.

On to “CTAACCTCTTGGGTTCTAACCTGTTGCTT (site CTAACCTCTAA)”, for which the “recombinant barcode read abundance (log10)” value amounted to 0.505.

On to “CTAACCTCTTGGGTTCTAACCTGTTGCTT (site CTAACCTCTCA)”, for which the “recombinant barcode read abundance (log10)” value is 0.149.

“CTAACCTCTTGGGTTCTAACCTGTTGCTT (site CTAACCTCTGA)”: the “recombinant barcode read abundance (log10)” value came out at 0.178.

With “CTAACCTCTTGGGTTCTAACCTGTTGCTT (site CTAACCTCTTA)”, the “recombinant barcode read abundance (log10)” value stood at 0.

Regarding “CTAAGAACTTGGGTTCTAACCTGTTGCAT (site CTAAGAACTAA)”, the “recombinant barcode read abundance (log10)” value is 0.15.

On to “CTAAGAACTTGGGTTCTAACCTGTTGCAT (site CTAAGAACTAC)”, for which the “recombinant barcode read abundance (log10)” value was found to be 0.0166.

As for “CTAAGAACTTGGGTTCTAACCTGTTGCAT (site CTAAGAACTAG)”, the “recombinant barcode read abundance (log10)” value was 0.188.

Take “CTAAGAACTTGGGTTCTAACCTGTTGCAT (site CTAAGAACTAT)”: the “recombinant barcode read abundance (log10)” value was 1.1.

Turning to “CTAAGAGCTTGGGTTCTAACCTGTTGCCA (site CTAAGAGCTTG)”, the “recombinant barcode read abundance (log10)” value worked out at 0.483.

As for “CTAAGAGCTTGGGTTCTAACCTGTTGCCA (site CTAAGCGCTTG)”, the “recombinant barcode read abundance (log10)” value worked out at 0.109.

Consider “CTAAGAGCTTGGGTTCTAACCTGTTGCCA (site CTAAGGGCTTG)”, for which the “recombinant barcode read abundance (log10)” value worked out at 0.0357.

“CTAAGAGCTTGGGTTCTAACCTGTTGCCA (site CTAAGTGCTTG)”: the “recombinant barcode read abundance (log10)” value is 0.116.

As for “CTAAGCACTTGGGTTCTAACCTGTTGCCG (site CTAAATACTCG)”, the “recombinant barcode read abundance (log10)” value turned out to be 0.849.

As for “CTAAGCACTTGGGTTCTAACCTGTTGCCG (site CTAAGCACTCG)”, the “recombinant barcode read abundance (log10)” value stood at 0.671.

Turning to “CTAAGGACTTGGGTTCTAACCTGTTGCTT (site CTAAGGACTAA)”, the “recombinant barcode read abundance (log10)” value was 0.0753.

With “CTAAGGACTTGGGTTCTAACCTGTTGCTT (site CTAAGGGCTCA)”, the “recombinant barcode read abundance (log10)” value stood at 0.124.

In the case of “CTAAGGGCTTGGGTTCTAACCTGTTGCCA (site CTAAGAGCTTG)”, the “recombinant barcode read abundance (log10)” value is 0.122.

With “CTAAGGGCTTGGGTTCTAACCTGTTGCCA (site CTAAGCGCTTG)”, the “recombinant barcode read abundance (log10)” value was found to be 0.0306.

As to “CTAAGGGCTTGGGTTCTAACCTGTTGCCA (site CTAAGGGCTTG)”, the “recombinant barcode read abundance (log10)” value stood at 0.591.

Turning to “CTAAGGGCTTGGGTTCTAACCTGTTGCCA (site CTAAGTGCTTG)”, the “recombinant barcode read abundance (log10)” value is 0.233.

For “CTAAGGGCTTGGGTTCTAACCTGTTGCGG (site CTAAGGGCTCC)”, the “recombinant barcode read abundance (log10)” value was determined as 1.94.

In the case of “CTAAGGGCTTGGGTTCTAACCTGTTGCGG (site CTTAGGGCTCC)”, the “recombinant barcode read abundance (log10)” value is 0.303.

With “CTAAGTTCTTGGGTTCTAACCTGTTGCGT (site CTAAGTTCTAC)”, the “recombinant barcode read abundance (log10)” value was 1.77.

Consider “CTAAGTTCTTGGGTTCTAACCTGTTGCGT (site CTACGTACTAC)”, for which the “recombinant barcode read abundance (log10)” value stood at 0.0986.

With “CTAATAGCTTGGGTTCTAACCTGTTGCCT (site CTAATAGCTAG)”, the “recombinant barcode read abundance (log10)” value is 0.901.

Regarding “CTAATAGCTTGGGTTCTAACCTGTTGCCT (site CTAATGGCTAG)”, the “recombinant barcode read abundance (log10)” value was 0.0554.

As to “CTAATAGCTTGGGTTCTAACCTGTTGCTA (site CTAATAGCTTA)”, the “recombinant barcode read abundance (log10)” value was found to be 0.162.

With “CTAATAGCTTGGGTTCTAACCTGTTGCTA (site CTAATATCTTA)”, the “recombinant barcode read abundance (log10)” value is 0.438.

As for “CTAATATCTTGGGTTCTAACCTGTTGCTA (site CTAATAGCTTA)”, the “recombinant barcode read abundance (log10)” value came out at 0.0341.

For the sequence “CTAATATCTTGGGTTCTAACCTGTTGCTA (site CTAATATCTTA)”, the “recombinant barcode read abundance (log10)” value is 0.512.

On to “CTAATTGCTTGGGTTCTAACCTGTTGCCT (site CCAATTGCTAG)”, for which the “recombinant barcode read abundance (log10)” value was 0.201.

“CTAATTGCTTGGGTTCTAACCTGTTGCCT (site CTAATTGCTAG)”: the “recombinant barcode read abundance (log10)” value worked out at 0.336.

On to “CTACAACCTTGGGTTCTAACCTGTTGCTT (site CTACAACCTAA)”, for which the “recombinant barcode read abundance (log10)” value came out at 1.28.

With “CTACAACCTTGGGTTCTAACCTGTTGCTT (site CTACACCCTAA)”, the “recombinant barcode read abundance (log10)” value stood at 0.0399.

Regarding “CTACAACCTTGGGTTCTAACCTGTTGCTT (site CTACAGCCTAA)”, the “recombinant barcode read abundance (log10)” value turned out to be 0.109.

On to “CTACAACCTTGGGTTCTAACCTGTTGCTT (site CTACATCCTAA)”, for which the “recombinant barcode read abundance (log10)” value was 0.

As for “CTACCCTCTTGGGTTCTAACCTGTTGCCT (site CTACCCTCTAG)”, the “recombinant barcode read abundance (log10)” value turned out to be 2.4.

Consider “CTACCCTCTTGGGTTCTAACCTGTTGCCT (site TCTAAGACTGC)”, for which the “recombinant barcode read abundance (log10)” value worked out at 0.122.

With “CTACGCACTTGGGTTCTAACCTGTTGCTG (site CTACGAACTCA)”, the “recombinant barcode read abundance (log10)” value came out at 0.

With “CTACGCACTTGGGTTCTAACCTGTTGCTG (site CTACGCACTCA)”, the “recombinant barcode read abundance (log10)” value came out at 1.68.

In the case of “CTACGCACTTGGGTTCTAACCTGTTGCTG (site CTACGGACTCA)”, the “recombinant barcode read abundance (log10)” value is 0.112.

Turning to “CTACGCACTTGGGTTCTAACCTGTTGCTG (site CTACGTACTCA)”, the “recombinant barcode read abundance (log10)” value amounted to 0.156.

“CTACGCTCTTGGGTTCTAACCTGTTGCAC (site CTACGATCTGT)”: the “recombinant barcode read abundance (log10)” value is 0.145.

Take “CTACGCTCTTGGGTTCTAACCTGTTGCAC (site CTACGCTCTGT)”: the “recombinant barcode read abundance (log10)” value amounted to 1.78.

“CTACGCTCTTGGGTTCTAACCTGTTGCAC (site CTACGGTCTGT)”: the “recombinant barcode read abundance (log10)” value was 0.0577.

In the case of “CTACGCTCTTGGGTTCTAACCTGTTGCAC (site CTACGTTCTGT)”, the “recombinant barcode read abundance (log10)” value came out at 0.0706.
